The target of this assay is human NLRP3 (Homo sapiens, UniProt Q96P20). Nature of the assay: Scintillation Proximity (SPA) NLRP3 Assay, displacement of 3H-MCC950. In kind it is binding. The conditions noted are these: displacement of 3H-MCC950 from human NLRP3. The method, boiled down:
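Displacement of radioligand 3H-MCC950 (125 nM final) from 350 nM human NLRP3, read by scintillation proximity after 6 h equilibration with PVT beads. Buffer: 20 mM HEPES pH 7.5, 150 mM NaCl, 5 mM MgCl2, 100 μM ADP; compound preincubated 15 min, ligand 60 min, RT. IC50 from specific binding.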
Background: SPA uses beads or plates that emit light when radiolabelled molecules are held near them.

pIC50: −log10 of the molar value. Bounds are passed on as bounds.

Chain of human NLRP3 (Q96P20 whole entry): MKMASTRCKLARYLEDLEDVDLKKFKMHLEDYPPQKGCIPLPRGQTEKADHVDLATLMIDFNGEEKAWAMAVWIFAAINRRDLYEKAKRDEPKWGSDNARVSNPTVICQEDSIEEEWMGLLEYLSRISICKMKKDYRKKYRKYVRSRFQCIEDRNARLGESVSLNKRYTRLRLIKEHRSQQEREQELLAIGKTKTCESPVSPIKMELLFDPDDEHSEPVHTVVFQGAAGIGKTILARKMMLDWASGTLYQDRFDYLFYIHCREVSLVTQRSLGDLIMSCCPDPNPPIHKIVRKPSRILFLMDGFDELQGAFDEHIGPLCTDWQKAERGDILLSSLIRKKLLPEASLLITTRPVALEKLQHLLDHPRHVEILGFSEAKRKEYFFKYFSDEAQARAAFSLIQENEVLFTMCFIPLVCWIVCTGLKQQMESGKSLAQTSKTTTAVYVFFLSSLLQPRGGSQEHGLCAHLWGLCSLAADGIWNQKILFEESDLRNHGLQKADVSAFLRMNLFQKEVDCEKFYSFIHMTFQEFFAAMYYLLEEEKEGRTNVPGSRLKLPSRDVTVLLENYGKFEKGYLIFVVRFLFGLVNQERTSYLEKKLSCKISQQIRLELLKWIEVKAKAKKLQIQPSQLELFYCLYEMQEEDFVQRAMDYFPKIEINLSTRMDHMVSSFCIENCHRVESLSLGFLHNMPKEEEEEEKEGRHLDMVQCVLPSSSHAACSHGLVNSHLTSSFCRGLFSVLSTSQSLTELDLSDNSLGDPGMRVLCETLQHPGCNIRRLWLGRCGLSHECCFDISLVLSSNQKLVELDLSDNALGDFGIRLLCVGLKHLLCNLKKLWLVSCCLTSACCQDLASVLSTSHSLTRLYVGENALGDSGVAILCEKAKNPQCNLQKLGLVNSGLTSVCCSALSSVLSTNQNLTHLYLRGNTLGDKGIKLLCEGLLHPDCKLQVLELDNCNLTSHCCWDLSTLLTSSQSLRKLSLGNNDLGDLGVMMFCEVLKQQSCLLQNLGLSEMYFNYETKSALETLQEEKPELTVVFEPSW

Usually pIC50 stands for the negative decadic logarithm of the IC50, by convention in mol/L. With `C[C@H]1C[C@H](NC(=O)N(C)c2ccc(OC(F)F)c(OC(F)F)c2)[C@@H]2CC[C@H]1N2c1nnn[nH]1` (single isomer, unassigned) [64D*], the pIC50 (Table B, activity class) was 5.00 to 6.00.
On the same count and under the same terms, in the case of `C[C@@H]1CCN(c2nnn[nH]2)C[C@@H](NC(=O)N(C)c2ccc(OC(F)F)c(F)c2)C1` (single isomer, unassigned) [15B*] it was 5.00 to 6.00; in that of `C[C@H]1CCN(c2nnn[nH]2)C[C@@H](NC(=O)N(C)c2ccc(C(F)(F)F)c(F)c2)C1` [Compound 9D, 1-(3-fluoro-4-(trifluoromethyl)phenyl)-1-methyl-3-((3S,5S)-5-methyl-1-(1H-tetrazol-5-yl)azepan-3-yl)urea], 5.00 to 6.00; in that of `C[C@@H]1CCN(c2nnn[nH]2)C[C@H](NC(=O)N(C)c2ccc(Cl)nc2)C1` (single isomer, unassigned) [29A*], 5.00 to 6.00.
On to `C[C@@H]1CCN(c2nnn[nH]2)C[C@H](NC(=O)Nc2ccc(Cl)cc2F)C1` (single isomer, unassigned) [27A*], for which the pIC50 is, setting by setting: (Table B, activity class) 5.00 to 6.00; (Table C) 5.85.
As for `C[C@H]1CCN(c2nnn[nH]2)C[C@@H](NC(=O)N(C)c2ccc(OC(F)(F)F)c(OC(F)F)c2)C1` (single isomer, unassigned) [25D*], the pIC50 (Table B, activity class) is 4.30 to 5.00.
On the same count and under the same terms, the same measure for `C[C@H]1C[C@@H](NC(=O)N(C)c2ccc(OC(F)(F)F)c(F)c2F)[C@@H]2CC[C@H]1N2c1nnn[nH]1` (single isomer, unassigned) [59C*]: less than 4.00; for `C[C@H]1CCN(c2nnn[nH]2)C[C@@H](NC(=O)N(C)c2ccc(C3CC3)cc2)C1` (single isomer, unassigned) [8D*]: 5.00 to 6.00.
`C[C@@H]1CCN(c2nnn[nH]2)C[C@@H](NC(=O)N(C)c2ccc(OC(F)(F)F)c(F)c2F)C1` (single isomer, unassigned) [26B*] gave a negative-log IC50 (pIC50) (Table B, activity class) of 5.00 to 6.00.
The same measure, in the same setting: the same measure for `C[C@H]1C[C@@H](NC(=O)N(C)c2ccc(OC(F)(F)F)cc2F)[C@@H]2CC[C@H]1N2c1nnn[nH]1` (single isomer, unassigned) [56C*]: 4.00 to 4.30.
Compound `C[C@H]1CCN(c2nnn[nH]2)C[C@@H](NC(=O)Nc2ccc(Cl)cc2F)C1` (single isomer, unassigned) [27D*] showed a pIC50 (Table B, activity class) of less than 4.00.
The compound `C[C@H]1CCN(c2nnn[nH]2)C[C@H](NC(=O)N(C)c2ccc(Cl)cc2F)C1` (single isomer, unassigned) [5C*] showed a pIC50 (Table B, activity class) of 4.00 to 4.30.
As to `C[C@H]1CCN(c2nnn[nH]2)C[C@@H](NC(=O)N(C)c2ccc(OC(F)F)c(F)c2)C1` (single isomer, unassigned) [15D*], the pIC50 (Table B, activity class) is 5.00 to 6.00.
In turn, `C[C@@H]1CCN(c2nnn[nH]2)C[C@@H](NC(=O)N(C)c2ccc(C(F)(F)F)c(F)c2)C1` (single isomer, unassigned) [9B*] gave a pIC50 (Table B, activity class) of 5.00 to 6.00.
The same measure, in the same setting: the same measure for `C[C@@H]1C[C@H](NC(=O)N(C)c2ccc(C3CC3)cc2)[C@H]2CC[C@@H]1N2c1nnn[nH]1` (single isomer, unassigned) [46B*]: 4.00 to 4.30; for `C[C@H]1CCN(c2nnn[nH]2)C[C@H](NC(=O)N(C)c2ccc(C(F)(F)F)nn2)C1` (single isomer, unassigned) [33C*]: 4.00 to 4.30; for `C[C@H]1C[C@H](NC(=O)N(C)c2ccc(Cl)c(F)c2)[C@@H]2CC[C@H]1N2c1nnn[nH]1` (single isomer, unassigned) [50D*]: 4.30 to 5.00.
Still for that read-out and setting: the same measure for `C[C@@H]1C[C@H](NC(=O)N(C)c2ccc(OC(F)(F)F)cc2F)[C@H]2CC[C@@H]1N2c1nnn[nH]1` (single isomer, unassigned) [56B*]: less than 4.00; for `C[C@H]1CCN(c2nnn[nH]2)C[C@H](NC(=O)Nc2ccc(Cl)cc2F)C1` (single isomer, unassigned) [27C*]: 4.30 to 5.00.
`C[C@H]1CCN(c2nnn[nH]2)C[C@H](NC(=O)N(C)c2cnc(C(F)(F)F)cn2)C1` (single isomer, unassigned) [32C*] gave a pIC50 (Table B, activity class) of 4.00 to 4.30.
On the same count and under the same terms, the same measure for `C[C@H]1CCN(c2nnn[nH]2)C[C@H](NC(=O)N(C)c2ccc(Cl)nc2)C1` (single isomer, unassigned) [29C*]: 4.00 to 4.30; for `C[C@H]1C[C@@H](NC(=O)N(C)c2ccc(OC(F)F)cc2F)[C@@H]2CC[C@H]1N2c1nnn[nH]1` (single isomer, unassigned) [57C*]: 4.00 to 4.30; for `C[C@H]1CCN(c2nnn[nH]2)C[C@@H](NC(=O)N(C)c2ccc(C(F)F)cc2F)C1` (single isomer, unassigned) [18D*]: 4.30 to 5.00.
Still for that read-out and setting: in the case of `C[C@@H]1CCN(c2nnn[nH]2)C[C@@H](NC(=O)N(C)c2ccc(C3CC3)cc2)C1` (single isomer, unassigned) [8B*] it was 5.00 to 6.00; in that of `C[C@H]1CCN(c2nnn[nH]2)C[C@H](NC(=O)N(C)c2ccc(OC(F)F)c(F)c2F)C1` (single isomer, unassigned) [40C*], 4.30 to 5.00.
Same read-out and setting: the same measure for `C[C@@H]1CCN(c2nnn[nH]2)C[C@H](NC(=O)N(C)c2ncc(C(F)(F)F)cn2)C1` (single isomer, unassigned) [30A*]: less than 4.00.
`C[C@H]1CCN(c2nnn[nH]2)C[C@@H](NC(=O)N(C)c2ccc(Cl)c(F)c2)C1` (single isomer, unassigned) [12D*] showed a pIC50 (Table B, activity class) of less than 4.00.
For the compound `C[C@H]1CCN(c2nnn[nH]2)C[C@@H](NC(=O)N(C)c2ccc(OC(F)F)c(OC(F)F)c2)C1` (single isomer, unassigned) [16D*], the pIC50 (Table B, activity class) is 5.00 to 6.00.
On the same count and under the same terms, in the case of `C[C@H]1C[C@H](NC(=O)N(C)c2ccc(OC(F)F)cc2F)[C@@H]2CC[C@H]1N2c1nnn[nH]1` (single isomer, unassigned) [57D*] it was 5.00 to 6.00; in that of `CCN(C(=O)N[C@H]1C[C@@H](C)CCN(c2nnn[nH]2)C1)c1ccc(OC(F)(F)F)cc1` (single isomer, unassigned) [43D*], 5.00 to 6.00; in that of `C[C@@H]1CCN(c2nnn[nH]2)C[C@@H](NC(=O)N(C)c2c(F)cc(OC(F)(F)F)cc2F)C1` (single isomer, unassigned) [41B*], 5.00 to 6.00.
The same measure, in the same setting: in the case of `C[C@H]1CCN(c2nnn[nH]2)C[C@@H](NC(=O)N(C)c2ccc(OC(F)(F)F)c(F)c2)C1` (single isomer, unassigned) [14D*] it was 4.30 to 5.00.
Still for that read-out and setting: in the case of `C[C@H]1C[C@@H](NC(=O)N(C)c2ccc(OC(F)F)c(F)c2F)[C@@H]2CC[C@H]1N2c1nnn[nH]1` (single isomer, unassigned) [58C*] it was 4.00 to 4.30; in that of `C[C@@H]1CCN(c2nnn[nH]2)C[C@@H](NC(=O)N(C)c2ccc(OC(F)(F)F)c(OC(F)F)c2)C1` (single isomer, unassigned) [25B*], 5.00 to 6.00.
`C[C@@H]1CCN(c2nnn[nH]2)C[C@@H](NC(=O)N(C)c2cnc(C(F)(F)F)nc2)C1` (single isomer, unassigned) [31B*] showed a pIC50 (Table B, activity class) of 4.30 to 5.00.
The same measure, in the same setting: in the case of `C[C@@H]1CCN(c2nnn[nH]2)C[C@H](NC(=O)N(C)c2ccc(C(F)(F)F)nn2)C1` (single isomer, unassigned) [33A*] it was 4.30 to 5.00; in that of `C[C@@H]1C[C@H](NC(=O)N(C)c2ccc(C3CC3)c(F)c2)[C@H]2CC[C@@H]1N2c1nnn[nH]1` (single isomer, unassigned) [54B*], less than 4.00.
On the same count and under the same terms, the same measure for `C[C@H]1CCN(c2nnn[nH]2)C[C@@H](NC(=O)N(C)c2ccc(C(F)(F)F)c(F)c2F)C1` (single isomer, unassigned) [21D*]: 5.00 to 6.00.
The same measure, in the same setting: the same measure for `C[C@@H]1C[C@H](NC(=O)N(C)c2ccc(OC(F)F)cc2)[C@H]2CC[C@@H]1N2c1nnn[nH]1` (single isomer, unassigned) [42B*]: 4.30 to 5.00; for `C[C@H]1CCN(c2nnn[nH]2)C[C@@H](NC(=O)N(C)c2ncc(C(F)(F)F)cn2)C1` (single isomer, unassigned) [30D*]: less than 4.00; for `C[C@@H]1C[C@H](NC(=O)N(C)c2ccc(C(F)(F)F)c(F)c2)[C@H]2CC[C@@H]1N2c1nnn[nH]1` (single isomer, unassigned) [49B*]: less than 4.00.
As to `C[C@H]1C[C@@H](NC(=O)N(C)c2ccc(OC(F)F)c(F)c2)[C@@H]2CC[C@H]1N2c1nnn[nH]1` (single isomer, unassigned) [52C*], the pIC50 (Table B, activity class) is less than 4.00.
Same read-out and setting: the same measure for `C[C@H]1C[C@H](NC(=O)N(C)c2ccc(OC(F)(F)F)c(F)c2F)[C@@H]2CC[C@H]1N2c1nnn[nH]1` (single isomer, unassigned) [59D*]: 4.30 to 5.00; for `C[C@@H]1CCN(c2nnn[nH]2)C[C@@H](NC(=O)N(C)c2c(F)cc(C3CC3)cc2F)C1` (single isomer, unassigned) [20B*]: 5.00 to 6.00; for `C[C@@H]1CCN(c2nnn[nH]2)C[C@@H](NC(=O)N(C)c2ccc(Cl)cn2)C1` (single isomer, unassigned) [28B*]: 4.00 to 4.30.
Still for that read-out and setting: the same measure for `C[C@H]1C[C@@H](NC(=O)N(C)c2ccc3ncoc3c2)CN(c2nnn[nH]2)C1` [Compound 35A, 1-(benzo[d]oxazol-6-yl)-1-methyl-3-((3R,5S)-5-methyl-1-(1H-tetrazol-5-yl)piperidin-3-yl)urea]: 4.30 to 5.00; for `C[C@H]1CCN(c2nnn[nH]2)C[C@H](NC(=O)N(C)c2ccc(OC(F)F)c(OC(F)F)c2)C1` (single isomer, unassigned) [16C*]: 4.00 to 4.30; for `C[C@@H]1CCN(c2nnn[nH]2)C[C@@H](NC(=O)N(C)c2ccc(OC(F)F)c(OC(F)F)c2)C1` (single isomer, unassigned) [16B*]: 5.00 to 6.00.
Consider `C[C@H]1C[C@H](NC(=O)N(C)c2ccc(OC(F)(F)F)cc2)[C@@H]2CC[C@H]1N2c1nnn[nH]1` (single isomer, unassigned) [45D*], for which the negative-log IC50 (pIC50) (Table B, activity class) was 5.00 to 6.00.
On the same count and under the same terms, in the case of `C[C@@H]1CCN(c2nnn[nH]2)C[C@@H](NC(=O)N(C)c2ccc(OC(F)F)c(F)c2F)C1` (single isomer, unassigned) [40B*] it was 5.00 to 6.00.
The same measure, in the same setting: the same measure for `C[C@H]1C[C@H](NC(=O)N(C)c2ccc(C(F)(F)F)c(F)c2F)[C@@H]2CC[C@H]1N2c1nnn[nH]1` (single isomer, unassigned) [47D*]: 4.30 to 5.00.

These data come from patent US20260008768A1, “UREA DERIVATIVES FOR INHIBITING NLRP3 AND USES THEREOF” (VENTUS THERAPEUTICS U.S., INC., priority 2023, published 2026).
